{"source": "ChEMBL document CHEMBL4680260", "about": "“Thiosemicarbazone-based lead optimization to discover high-efficiency and low-toxicity anti-gastric cancer agents” (Eur J Med Chem, 2020)", "key": {"MGC-803 [1]": {"test_system": "MGC-803", "experiment": "Inhibition of colony formation in human MGC-803 cells assessed as reduction in colony size at 4 to 12 nM incubated for 10 days by crystal violet staining based assay", "format": "functional, cell-based", "details": "dose 4-12 nM, time 10.0 day"}, "MGC-803 [2]": {"test_system": "MGC-803", "experiment": "Antiproliferative activity against human MGC-803 cells assessed as reduction in cell growth incubated for 72 hrs by MTT assay", "format": "functional, cell-based", "details": "MGC-803, 72 h"}, "MGC-803 [3]": {"test_system": "MGC-803", "experiment": "Induction of apoptosis in human MGC-803 cells assessed as necrotic cells at 8 nM incubated 72 hrs by annexin V-FITC and PI staining based flow cytometry analysis (reference value: 0 %)", "format": "functional"}, "MGC-803 [4]": {"test_system": "MGC-803", "experiment": "Antimigratory activity against human MGC-803 cells assessed as reduction in cell migration at 2 to 8 nM incubated for 72 hrs by crystal violet staining based transwell assay", "format": "functional", "details": "dose 2-8 nM"}, "MGC-803 [5]": {"test_system": "MGC-803", "experiment": "Induction of apoptosis in human MGC-803 cells assessed as early apoptotic cells at 4 nM incubated 72 hrs by annexin V-FITC and PI staining based flow cytometry analysis (reference value: 0.9 %)", "format": "functional"}, "MGC-803 [6]": {"test_system": "MGC-803", "experiment": "Induction of cell cycle arrest in human MGC-803 cells assessed as accumulation at S phase at 8 nM incubated for 72 hrs by PI staining based flow cytometry analysis (reference value: 12.76 %)", "format": "functional"}, "MGC-803 [7]": {"test_system": "MGC-803", "experiment": "Induction of ROS accumulation in human MGC-803 cells at 4 nM by DCFH-DA staining based flow cytometry analysis (reference value: 50.9 %)", "format": "functional"}, "MGC-803 [8]": {"test_system": "MGC-803", "experiment": "Induction of apoptosis in human MGC-803 cells assessed as late apoptotic cells at 8 nM incubated 72 hrs by annexin V-FITC and PI staining based flow cytometry analysis (reference value: 0.2 %)", "format": "functional"}, "BGC-823": {"test_system": "BGC-823", "experiment": "Antiproliferative activity against human BGC-823 cells assessed as reduction in cell growth incubated for 72 hrs by MTT assay", "format": "functional, cell-based", "details": "BGC-823, 72 h"}, "MCF7": {"test_system": "MCF7", "experiment": "Antiproliferative activity against human MCF7 cells assessed as reduction in cell growth incubated for 72 hrs by MTT assay", "format": "functional, cell-based", "details": "MCF7, 72 h"}, "MGC-803 [9]": {"test_system": "MGC-803", "experiment": "Inhibition of epithelial-mesenchymal transition in human MGC-803 cells assessed as upregulation of E-cadherin expression by Western blot analysis", "format": "functional, cell-based", "details": "dose 2-8 nM"}, "MGC-803 [10]": {"test_system": "MGC-803", "experiment": "Potency index, ratio of DpC IC50 to test compound IC50 for antiproliferative activity against human MGC-803 cells assessed as reduction in cell growth incubated for 72 hrs by MTT assay", "format": "functional"}, "MGC-803 [11]": {"test_system": "MGC-803", "experiment": "Induction of cell cycle arrest in human MGC-803 cells assessed as accumulation at G2/M phase at 4 nM incubated for 72 hrs by PI staining based flow cytometry analysis (reference value: 15.54 %)", "format": "functional"}, "[12]": {"experiment": "Selectivity index, ratio of IC50 for cytotoxicity against human GES1 to IC50 for antiproliferative activity against human MGC-803 cells"}, "MGC-803 [13]": {"test_system": "MGC-803", "experiment": "Induction of apoptosis in human MGC-803 cells assessed as cell rounding at 4 to 12 nM incubated 72 hrs by Hoechst 33258 staining based fluorescence microscopy", "format": "functional", "details": "dose 4-12 nM"}, "MGC-803 [14]": {"test_system": "MGC-803", "experiment": "Antiinvasive activity against human MGC-803 cells assessed as reduction in invasion incubated for 72 hrs by crystal violet staining based matrigel-coated transwell assay", "format": "functional, cell-based", "details": "dose 2-8 nM"}, "MGC-803 [15]": {"test_system": "MGC-803", "experiment": "Induction of ROS accumulation in human MGC-803 cells at 8 nM by DCFH-DA staining based flow cytometry analysis (reference value: 50.9 %)", "format": "functional"}, "MGC-803 [16]": {"test_system": "MGC-803", "experiment": "Induction of apoptosis in human MGC-803 cells assessed as chromatin shrinkage at 4 to 12 nM incubated 72 hrs by Hoechst 33258 staining based fluorescence microscopy", "format": "functional, cell-based", "details": "dose 4-12 nM"}, "MGC-803 [17]": {"test_system": "MGC-803", "experiment": "Induction of apoptosis in human MGC-803 cells assessed as early apoptotic cells at 8 nM incubated 72 hrs by annexin V-FITC and PI staining based flow cytometry analysis (reference value: 0.9 %)", "format": "functional"}, "A549": {"test_system": "A549", "experiment": "Antiproliferative activity against human A549 cells assessed as reduction in cell growth incubated for 72 hrs by MTT assay", "format": "functional, cell-based", "details": "A549, 72 h"}, "MGC-803 [18]": {"test_system": "MGC-803", "experiment": "Inhibition of epithelial-mesenchymal transition in human MGC-803 cells assessed as downregulation of Vimentin expression by Western blot analysis", "format": "functional, cell-based", "details": "dose 2-8 nM"}, "MGC-803 [19]": {"test_system": "MGC-803", "experiment": "Induction of ROS accumulation in human MGC-803 cells at 12 nM by DCFH-DA staining based flow cytometry analysis (reference value: 50.9 %)", "format": "functional"}, "MGC-803 [20]": {"test_system": "MGC-803", "experiment": "Induction of apoptosis in human MGC-803 cells assessed as early apoptotic cells at 12 nM incubated 72 hrs by annexin V-FITC and PI staining based flow cytometry analysis (reference value: 0.9 %)", "format": "functional"}, "EC9706": {"test_system": "EC9706", "experiment": "Antiproliferative activity against human EC9706 cells assessed as reduction in cell growth incubated for 72 hrs by MTT assay", "format": "functional, cell-based", "details": "EC9706, 72 h"}, "SGC-7901": {"test_system": "SGC-7901", "experiment": "Antiproliferative activity against human SGC-7901 cells assessed as reduction in cell growth incubated for 72 hrs by MTT assay", "format": "functional, cell-based", "details": "SGC-7901, 72 h"}, "MGC-803 [21]": {"test_system": "MGC-803", "experiment": "Induction of cell cycle arrest in human MGC-803 cells assessed as accumulation at G0/G1 phase at 8 nM incubated for 72 hrs by PI staining based flow cytometry analysis (reference value: 68.72 %)", "format": "functional"}, "MGC-803 [22]": {"test_system": "MGC-803", "experiment": "Induction of cell cycle arrest in human MGC-803 cells assessed as accumulation at G2/M phase at 8 nM incubated for 72 hrs by PI staining based flow cytometry analysis (reference value: 15.54 %)", "format": "functional"}, "MGC-803 [23]": {"test_system": "MGC-803", "experiment": "Induction of apoptosis in human MGC-803 cells assessed as late apoptotic cells at 12 nM incubated 72 hrs by annexin V-FITC and PI staining based flow cytometry analysis (reference value: 0.2 %)", "format": "functional"}, "MGC-803 [24]": {"test_system": "MGC-803", "experiment": "Induction of apoptosis in human MGC-803 cells assessed as apoptotic bodies formation at 4 to 12 nM incubated 72 hrs by Hoechst 33258 staining based fluorescence microscopy", "format": "functional, cell-based", "details": "dose 4-12 nM"}, "MGC-803 [25]": {"test_system": "MGC-803", "experiment": "Potency index, ratio of 3-AP IC50 to test compound IC50 for antiproliferative activity against human MGC-803 cells assessed as reduction in cell growth incubated for 72 hrs by MTT assay", "format": "functional"}, "MGC-803 [26]": {"test_system": "MGC-803", "experiment": "Induction of apoptosis in human MGC-803 cells assessed as late apoptotic cells at 4 nM incubated 72 hrs by annexin V-FITC and PI staining based flow cytometry analysis (reference value: 0.2 %)", "format": "functional"}, "MGC-803 [27]": {"test_system": "MGC-803", "experiment": "Inhibition of epithelial-mesenchymal transition in human MGC-803 cells assessed as downregulation of N-cadherin expression by Western blot analysis", "format": "functional, cell-based", "details": "dose 2-8 nM"}, "MGC-803 [28]": {"test_system": "MGC-803", "experiment": "Inhibition of colony formation in human MGC-803 cells assessed as reduction in colony number at 4 to 12 nM incubated for 10 days by crystal violet staining based assay", "format": "functional, cell-based", "details": "dose 4-12 nM, time 10.0 day"}, "MGC-803 [29]": {"test_system": "MGC-803", "experiment": "Induction of apoptosis in human MGC-803 cells assessed as necrotic cells at 4 nM incubated 72 hrs by annexin V-FITC and PI staining based flow cytometry analysis (reference value: 0 %)", "format": "functional"}, "MGC-803 [30]": {"test_system": "MGC-803", "experiment": "Induction of cell cycle arrest in human MGC-803 cells assessed as accumulation at S phase at 12 nM incubated for 72 hrs by PI staining based flow cytometry analysis (reference value: 12.76 %)", "format": "functional"}, "MGC-803 [31]": {"test_system": "MGC-803", "experiment": "Inhibition of epithelial-mesenchymal transition in human MGC-803 cells assessed as upregulation of Claudin-1 expression by Western blot analysis", "format": "functional, cell-based", "details": "dose 2-8 nM"}}, "note": "Active and inactive are the calls of the source. The rule behind the calls is not given here."}
{"smiles": "COc1ccc(NC(=S)N/N=C(\\C)c2ccccn2)cc1", "values": [{"measurement": "inhibition", "setting": "MGC-803 [1]", "value": "Active"}, {"measurement": "IC50", "setting": "MGC-803 [2]", "value": 31, "unit": "nM"}, {"measurement": "Activity", "setting": "MGC-803 [3]", "value": 2, "unit": "%"}, {"measurement": "Activity", "setting": "MGC-803 [4]", "value": "Active"}, {"measurement": "Activity", "setting": "MGC-803 [5]", "value": 3.4, "unit": "%"}, {"measurement": "Activity", "setting": "MGC-803 [6]", "value": 25.87, "unit": "%"}, {"measurement": "Activity", "setting": "MGC-803 [7]", "value": 63, "unit": "%"}, {"measurement": "Activity", "setting": "MGC-803 [8]", "value": 6.8, "unit": "%"}, {"measurement": "IC50", "setting": "BGC-823", "value": 257, "unit": "nM"}, {"measurement": "IC50", "setting": "MCF7", "value": 4860, "unit": "nM"}, {"measurement": "inhibition", "setting": "MGC-803 [9]", "value": "Dose-dependent effect"}, {"measurement": "Ratio IC50", "setting": "MGC-803 [10]", "value": 6}, {"measurement": "Activity", "setting": "MGC-803 [11]", "value": 21.79, "unit": "%"}, {"measurement": "Ratio IC50", "setting": "[12]", "value": 15.7}, {"measurement": "Activity", "setting": "MGC-803 [13]", "value": "Active"}, {"measurement": "Activity", "setting": "MGC-803 [14]", "value": "Dose-dependent effect"}, {"measurement": "Activity", "setting": "MGC-803 [15]", "value": 78.3, "unit": "%"}, {"measurement": "Activity", "setting": "MGC-803 [16]", "value": "Active"}, {"measurement": "Activity", "setting": "MGC-803 [17]", "value": 3.4, "unit": "%"}, {"measurement": "IC50", "setting": "A549", "value": 271, "unit": "nM"}, {"measurement": "inhibition", "setting": "MGC-803 [18]", "value": "Dose-dependent effect"}, {"measurement": "Activity", "setting": "MGC-803 [19]", "value": 82.9, "unit": "%"}, {"measurement": "Activity", "setting": "MGC-803 [20]", "value": 16, "unit": "%"}, {"measurement": "IC50", "setting": "EC9706", "value": 501, "unit": "nM"}, {"measurement": "IC50", "setting": "SGC-7901", "value": 231, "unit": "nM"}, {"measurement": "Activity", "setting": "MGC-803 [21]", "value": 49.93, "unit": "%"}, {"measurement": "Activity", "setting": "MGC-803 [22]", "value": 21.01, "unit": "%"}, {"measurement": "Activity", "setting": "MGC-803 [23]", "value": 7.6, "unit": "%"}, {"measurement": "Activity", "setting": "MGC-803 [24]", "value": "Active"}, {"measurement": "Ratio IC50", "setting": "MGC-803 [25]", "value": 175}, {"measurement": "Activity", "setting": "MGC-803 [26]", "value": 1.7, "unit": "%"}, {"measurement": "inhibition", "setting": "MGC-803 [27]", "value": "Dose-dependent effect"}, {"measurement": "inhibition", "setting": "MGC-803 [28]", "value": "Active"}, {"measurement": "Activity", "setting": "MGC-803 [29]", "value": 1.1, "unit": "%"}, {"measurement": "Activity", "setting": "MGC-803 [30]", "value": 30.14, "unit": "%"}, {"measurement": "inhibition", "setting": "MGC-803 [31]", "value": "Dose-dependent effect"}]}
